Article PMC5856391, “Critical role of C-terminal residues of the Alzheimer's associated β-amyloid protein in mediating antiviral activity and modulating viral and bacterial interactions with neutrophils” (PLoS ONE, 2018)
Entries after “also recorded” stand apart in the source; their conditions may differ.

Legend:
IAV [1] = test: Confocal microscopy of Alexa Fluor 594 labeled IAV on MDCK cells; assay type: cell-based, influenza A virus; conditions: Alexa Fluor 594 labeled IAV pre-incubated with peptide 30 minutes at 37°C, then MDCK cells 45 min; 3 experiments; Fig 3
human neutrophils [2] = test: Neutrophil uptake of rhodamine labeled E.coli; assay type: cell-based; conditions: for Neutrophil uptake of E.coli: rhodamine labeled E.coli pre-incubated with peptide, flow cytometry, 5 experiments, separate donors, Fig 7
human neutrophils [3] = test: IAV uptake by neutrophils (flow cytometry); assay type: cell-based; conditions: FITC-IAV (Phil82) treated with peptide 30 min at 37°C, then neutrophils 45 minutes at 37°C, trypan blue quench, 5 experiments, separate donors
[4] = tested on: Escherichia coli (E.coli); test: Aggregation of rhodamine labeled E.coli (fluorescent microscopy); conditions: rhodamine E. coli preincubated with 50ug/ml peptide for 1 hour at 37°C, fluorescent microscope; three experiments; Fig 6
IAV [5] = test: Viral aggregation by electron microscopy; design: species or system influenza A virus; conditions: 2 or 8μg/ml of peptide; LPS control 10 EU/ml; representative of 3 experiments; Fig 2C
[6] = tested on: Philippines 82/H3N2 (Phil82) influenza A virus; assay type: cell-based
human neutrophils [7] = assay type: cell-based; conditions: compared to IAV alone, 5 experiments
IAV [8] = test: Viral aggregation by light absorbance at 350 nm; design: species or system influenza A virus; conditions: for Aggregation of IAV particles (light transmission at 350nm): dilute suspension of IAV, Fig 2A and 2B (8 and 16μg/ml)
[9] = design: method as in PMID 24449257; conditions: simulation kinetics and energetics, compared with βA 35–40 and βA37-42; cited from earlier work

EDVGSNKGAIIGLMVGGVV [βA22-40, βA fragment of residues 22-40, obtained from Genscript]
Viral aggregates visible by confocal microscopy (IAV [1]): not | Neutrophil uptake of E.coli (human neutrophils [2]): slight but significantly increased uptake at the highest concentration tested | Neutrophil uptake of IAV (human neutrophils [3]; Fig 4): lacked activity | Aggregation of fluorescent E.coli [4]: did not | Viral aggregation by electron microscopy (IAV [5]): did not | Inhibition of IAV infectivity (neutralization) [6]: no or minimal antiviral activity

EDVGSNKGAIIGLMVGGVVIA [βA22-42, βA fragment of residues 22-42, obtained from Genscript]
Viral aggregates visible by confocal microscopy (IAV [1]): Aggregates were visible; also recorded: Aggregates were apparent | Neutrophil H2O2 formation in response to IAV, 16μg/ml (human neutrophils [7]; IAV pre-incubated with 16μg/ml peptide, Fig 5A): increased H2O2 formation as compared to IAV alone | Neutrophil uptake of E.coli (human neutrophils [2]): marked increase in uptake | Neutrophil uptake of IAV (human neutrophils [3]; Fig 4): greater increases than βA1-42 | Neutrophil uptake of IAV (human neutrophils [3]; Fig 4, listed as 22–42): had the ability to increase viral uptake | Aggregation of fluorescent E.coli [4]: caused aggregation | Viral aggregation by electron microscopy (IAV [5]): marked viral aggregation | Inhibition of IAV infectivity (neutralization) [6]: significantly inhibited infectivity | Aggregation of IAV (light transmission at 350nm), 16μg/ml (IAV [8]; 16μg/ml of βA peptides, Fig 2B): statistically significant aggregation | Aggregation of IAV particles (light transmission at 350nm) (IAV [8]): highest activity in this assay | Aggregation of IAV particles (light transmission at 350nm) (IAV [8]; listed as 22–42): caused aggregation of IAV particles

GLMVGGVV [βA33-40, βA fragment of residues 33-40, obtained from Genscript]
Neutrophil uptake of E.coli (human neutrophils [2]): No significant effects | Neutrophil uptake of IAV (human neutrophils [3]; Fig 4): lacked activity | Inhibition of IAV infectivity (neutralization) [6]: no or minimal antiviral activity

MVGGVVIA [βA35-42, 8 amino acid βA fragment of residues 35-42, obtained from Genscript]
Neutrophil H2O2 production in response to IAV (human neutrophils [7]; IAV pre-incubated with peptide, Fig 5B): did not increase H2O2 production | Neutrophil uptake of E.coli, 32μg/ml (human neutrophils [2]; 32μg/ml peptide, Fig 7A): some increase in E.coli uptake | Neutrophil uptake of IAV (human neutrophils [3]; Fig 4): increased uptake at the highest concentration tested | Propensity to assemble into unorganized oligomers [9]: increased propensity | Inhibition of IAV infectivity (neutralization) [6]: significantly inhibited infectivity | Aggregation of IAV particles (light transmission at 350nm) (IAV [8]): caused aggregation of IAV particles
